Tests used:
Type in all cases: cell-based
[1] = tested on: primary hepatocytes isolated from rats; assay: Hepatocyte protective effect against substances deriving hepatocyte toxicity (WST-1 viability); settings: Rattus norvegicus, Hepatocyte, doxorubicin, 24-48 h, read-out: EC50, cell protective effects against doxorubicin in hepatocytes
In short: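 Hepatocytes from two-step collagenase perfusion (≥90% viable) seeded on collagen, pretreated 30 min with compound (5-step 2- or 3-fold dilutions from 30, 10 or 1 uM; 0.2% DMSO), then exposed to hepatotoxic agents. WST-1 absorbance at 440 nm after 24-48 h; EC50 = concentration giving 50% of maximal protection.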

[2] = tested on: cardiac cells (H9C2, white rat cardiomyocyte); assay: Protective effect when tBHP was treated on cardiac cells (SRB method); settings: tBHP 400 uM, 2 h
Description: (§1) In order to determine the protective effect on pancreatic cells, Linm5F cells, a sort of the beta cells, were distributed into the 96-well plate in the amount of 2×10^4 cells/well, and incubated for 24 h. The Example compounds were serially diluted by 3-fold to the final concentration of 30, 10, 3, 1, 0.3, 0.1 uM, by which each well was treated for 1 h. Cells were treated with tBHP at the final concentration of 400 uM, and further incubated for 5 h. Protective effects were determined using SRB (Sulforhodamine B Protein) method in which total amount of cellular protein is stained. Briefly, cells were incubated for 5 h, 50 uL of 4% formaldehyde solution was added to each well to fix the cells, and stored for about 30 min at room temperature. After discarding the media, each well was washed with distilled water 2-3 times, and the plate was dried in an oven at 50° C. 50 uL of SRB solution was added to each well, and placed for about 30 min at room temperature. After removing SRB solution, the plate was washed with 1% acetic acid solution 2-3 times. After drying the plate in an oven at 50° C., 100 uL of 10 mM Tris was added to elute SRB which was staining the intracellular protein.
In order to assess the protective effect on cardiac cells, H9C2 cells were distributed in the amount of 1.5×10^4 cells/well, and incubated for 24 h. The Example compounds were serially diluted by 3-fold to the final concentration of 30, 10, 3, 1, 0.3, 0.1 uM, by which each well was treated for 45 min. Cells were treated with tBHP at the final concentration of 400 uM, and incubated for 2 h. Protective effect of each compound was determined using the same SRB method as in Linm5F of above mentioned 2).

[3] = tested on: pancreatic cells (Linm5F); assay: Protective effect when tBHP was treated on pancreatic cells (SRB method); settings: tBHP 400 uM, 5 h
Description: as §1

brain cells (SK-N-MC) = assay: Protective effect when tBHP was treated on brain cells (LDH assay); settings: Homo sapiens, tBHP 400 uM, 6 h
Description: In order to assess the protective effect on brain cells, 2×10^4 brain cells were distributed into the 96-well plate using DMEM media (Gibco, 10% FBS), and incubated for 24 h. The Example compounds were serially diluted by 3-fold to the final concentration of 30, 10, 3, 1, 0.3, 0.1 uM, by which each well was treated for 1 h. Cells were treated with tBHP at the final concentration of 400 uM, and incubated for 6 h. 50 uL of media was taken from each well to proceed with LDH assay (Promega). In LDH assay, 50 uL of media was mixed with 50 uL of assay solution. After the reaction for 30 min at room temperature, absorbance was measured at 490 nm using SpectraMax (Molecular Device).

Row | Structure (SMILES) | EC50 [1] [µM] | also measured
1 | CS(=O)(=O)N1CCC(Nc2cc(CN3CCS(=O)(=O)CC3)cc3cc(-c4ccccc4)[nH]c23)CC1 [Example 97, (5-(1,1-Dioxo-thiomorpholin-4-yl)methyl-2-phenyl-1H-indol-7-yl)-(1-methanesulfonyl-piperidin-4-yl)-amine] | 0.09 | EC50 [2]: ≤ 0.2 µM
2 | COC(=O)CNc1cc(F)cc2cc(-c3ccccc3)[nH]c12 [Example 106, 2-(5-Fluoro-2-phenyl-1H-indol-7-yl)amino-acetic acid methyl ester] | 0.45 | EC50 [3]: ≤ 0.1 µM
3 | O=C1CN(Cc2cc(NC3CCOCC3)c3[nH]c(-c4ccccc4)cc3c2)CCN1 [Example 37, (Tetrahydropyran-4-yl)-[2-phenyl-5-(2-oxo-piperazin-4-yl)methyl-1H-indol-7-yl]amine] | 0.15 | EC50 (brain cells (SK-N-MC)): ≤ 0.1 µM
4 | Cc1cc(N(C)C2CCOCC2)c2[nH]c(-c3ccccc3)cc2c1 [Example 55, (Tetrahydropyran-4-yl)-(5-methyl-2-phenyl-1H-indol-7-yl)-methyl-amine] | 0.3 | EC50 (brain cells (SK-N-MC)): ≤ 0.1 µM
5 | O=C(O)CNc1cc(F)cc2cc(-c3ccccc3)[nH]c12 [Example 107, 2-(5-Fluoro-2-phenyl-1H-indol-7-yl)amino-acetic acid] | 0.35 | EC50 [3]: ≤ 0.1 µM
6 | O=C(O)[C@@H]1CCCN1C(=O)c1cc(NC2CCCC2)c2[nH]c(-c3ccccc3)cc2c1 [Example 117, (2S)-1-(7-cyclopentylamino-2-phenyl-1H-indole-5-carbonyl)-pyrrolidine-2-carboxylic acid] | 0.26 | EC50 [2]: ≤ 0.2 µM
7 | CC(=O)Nc1ccc(-c2cc3cc(N4CCS(=O)(=O)CC4)cc(N(C4CCCC4)C4CCCC4)c3[nH]2)cc1 [Example 86, Dicyclopentyl-{5-(1,1-dioxo-thiomorpholin-4-yl)-2-[4-(acetyl)aminophenyl]-1H-indol-7-yl}-amine] | 1.44 | EC50 [2]: 0.5 µM
8 | Cc1ccc(Nc2cc(Cl)cc3c(-c4ccccc4)c[nH]c23)nc1 [Example 115, (5-Chloro-3-phenyl-1H-indol-7-yl)-(5-methyl-pyridin-2-yl)-amine] | > 2 | EC50 (brain cells (SK-N-MC)): 0.26 µM
9 | CC(=O)Nc1ccc(-c2cc3cc(N4CCS(=O)(=O)CC4)cc(NC(C4CCOCC4)C4CCOCC4)c3[nH]2)cc1 [Example 88, Di(tetrahydropyran-4-yl)methyl-{5-(1,1-dioxo-thiomorpholin-4-yl)-2-[4-(acetyl)aminophenyl]-1H-indol-7-yl}-amine] | > 2 | –
10 | NC(=O)C1CCC(Nc2cc(Cl)cc3cc(-c4ccccc4)[nH]c23)CC1 (stereo not drawn) [Example 104, 4-(5-Chloro-2-phenyl-1H-indol-7-yl)amino-cyclohexane-1-carboxylic acid amide] | 0.08 | –
11 | O=S1(=O)CCC(N2CCC(Nc3cc(F)cc4cc(-c5ccccc5)[nH]c34)CC2)CC1 [Example 99, (5-Fluoro-2-phenyl-1H-indol-7-yl)-[1-(1,1-dioxo-tetrahydrothiopyran-4-yl)-piperidin-4-yl]-amine] | 0.2 | –
12 | O=S1(=O)CCN(Cc2cc(NCC3CCOCC3)c3[nH]c(-c4ccccc4)c(Br)c3c2)CC1 [Example 74, (Tetrahydropyran-4-ylmethyl)-(3-bromo-5-(1,1-dioxo-thiomorpholin-4-yl)methyl-2-phenyl-1H-indol-7-yl)-amine] | 0.35 | EC50 [2]: ≤ 0.2 µM
13 | O=C(O)c1cccc(-c2cc3cc(Cl)cc(NC4CCCC4)c3[nH]2)c1 [Example 124, 3-(7-Cyclopentylamino-5-chloro-1H-indol-2-yl)-benzoic acid] | 0.15 | –
14 | O=S1(=O)CCN(Cc2cc(N(C3CCOCC3)C3CCOCC3)c3[nH]c(-c4ccccc4)cc3c2)CC1 [Example 58, Di(tetrahydropyran-4-yl)-[2-phenyl-5-(1,1-dioxo-thiomorpholin-4-yl)methyl-1H-indol-7-yl]amine] | 0.26 | –
15 | O=C(O)C[C@@H]1CSC(c2cc(NCC3CCOCC3)c3[nH]c(-c4ccccc4)cc3c2)=N1 [Example 122, 2-[(R)-2-(2-phenyl-7-(tetrahydropyran-4-yl)methylamino-1H-indol-5-yl)-4,5-dihydro-thiazol-4-yl]-acetic acid] | 0.2 | –
16 | Clc1cc(NC2CCOCC2)c2[nH]cc(-c3ccccc3)c2c1 [Example 79, (Tetrahydropyran-4-yl)-(5-chloro-3-phenyl-1H-indol-7-yl)-amine] | 0.14 | –
17 | Brc1c(-c2ccccc2)[nH]c2c(NC3CCOCC3)cc(CN3CCOCC3)cc12 [Example 162, (Tetrahydropyran-4-yl)-[3-bromo-5-(morpholin-4-yl)methyl-2-phenyl-1H-indol-7-yl]-amine] | 0.7 | –
18 | OCc1cccc(-c2cc3cc(Cl)cc(NC4CCOCC4)c3[nH]2)c1 [Example 126, {3-[5-Chloro-7-(tetrahydropyran-4-yl)amino-1H-indol-2-yl]-phenyl}-methanol] | 0.2 | –
19 | O=C(O)Cc1cc(NC2CCCC2)c2[nH]c(-c3ccccc3)cc2c1 [Example 33, 2-[7-(Cyclopentyl)amino-2-phenyl-1H-indol-5-yl]acetic acid] | 0.15 | –
20 | O=S1(=O)CCN(Cc2cc(NC3CCOCC3)c3[nH]c(-c4cccc(F)c4)cc3c2)CC1 [Example 75, (Tetrahydropyran-4-yl)-(5-(1,1-dioxo-thiomorpholin-4-yl)methyl-2-(3-fluorophenyl)-1H-indol-7-yl)-amine] | 0.12 | –
21 | Cc1cc(NC2CCN(C(=O)CO)CC2)c2[nH]c(-c3ccccc3)cc2c1 [Example 92, 2-Hydroxy-1-[4-(5-methyl-2-phenyl-1H-indol-7-yl)amino-piperidin-1-yl]-ethanone] | 0.036 | –
22 | O=C(O)Cc1ccc(-c2cc3cc(Cl)cc(NCC4CCOCC4)c3[nH]2)cc1 [Example 139, 2-{4-[5-Chloro-7-(tetrahydropyran-4-ylmethyl)amino-1H-indol-2-yl]phenyl}-acetic acid] | 0.33 | –
23 | O=C(O)c1cc(NC2CCCC2)c2[nH]c(-c3ccccc3)cc2c1 [Example 30, 7-(Cyclopentyl)amino-2-phenyl-1H-indole-5-carboxylic acid] | 0.14 | –
24 | O=C(O)Cc1cc(NC2CCOCC2)c2[nH]c(-c3ccccc3)cc2c1 [Example 34, 2-[2-Phenyl-7-(tetrahydropyran-4-yl)amino-1H-indol-5-yl]-acetic acid] | > 2 | –
25 | Clc1cc(NC2CCCC2)c2[nH]c(-c3ccccc3)cc2c1 [Example 46, Cyclopentyl-(5-chloro-2-phenyl-1H-indol-7-yl)-amine] | 0.05 | –
26 | OCc1cccc(-c2cc3cc(Cl)cc(NC4CCCC4)c3[nH]2)c1 [Example 125, [3-(5-Chloro-7-cyclopentylamino-1H-indol-2-yl)-phenyl]-methanol] | 0.111 | –
27 | c1ccc(-c2cc3cccc(NC4CCCC4)c3[nH]2)nc1 [Example 7, Cyclopentyl-[2-(pyridin-2-yl)-1H-indol-7-yl]amine] | 0.5 | –
28 | COC(=O)Cc1ccc(-c2cc3cc(Cl)cc(NCC4CCOCC4)c3[nH]2)cc1 [Example 144, 2-{4-[5-Chloro-7-(tetrahydropyran-4-ylmethyl)amino-1H-indol-2-yl]phenyl}-acetic acid methyl ester] | 0.3 | –
29 | O=C1CN(Cc2c(-c3ccccc3)[nH]c3c(NC4CCOCC4)cc(Cl)cc23)CCN1 [Example 69, (Tetrahydropyran-4-yl)-(5-chloro-3-(2-oxo-piperazin-4-yl)methyl-2-phenyl-1H-indol-7-yl)-amine] | 0.355 | –
30 | Cc1cc(NC(=O)Nc2ccccc2)c2[nH]c(-c3ccccn3)cc2c1 [Example 24, 1-Phenyl-3-[5-methyl-2-(pyridin-2-yl)-1H-indol-7-yl]-urea] | 0.9 | –

Source: patent publication US9000028B2, “Indole and indazole compounds as an inhibitor of cellular necrosis” (LG Life Sciences Ltd., priority 2007, dated 2015)
